One may read the IC50 as the concentration that inhibits the measured activity by half.

We go through nine compounds from US20130072519A1, “2-PHENYL BENZOYLAMIDES” (priority 2010, published 2013).

This assay has as its system Apolipoprotein B Secretion from HepG2 Cells. Kind of assay: Inhibition of Apolipoprotein B secretion from HepG2 cells (ELISA). The assay is classed as cell-based, human. To be noted: Homo sapiens, HepG2, HepG2 cells, 22-24 hours incubation, ApoB ELISA; Low/High IC50 columns give the 95% confidence interval. The protocol: Inhibition of Apolipoprotein B Secretion from HepG2 Cells
To assess the inhibitory effect of the compounds of the invention on ApoB production, an endogenously ApoB producing cell line, HEPG2, was implemented in an in vitro ELISA assay. HEPG2 cells are plated at 25,000 per well (96-well plates) in media consisting of DMEM Low Glucose, 1% NEAA (non-essential amino acids), 10% FBS (heat inactivated), 1% L-Glutamine, and 1% Antimycotic-Antibiotic and incubated for 16-18 hours at 37° C. and 5% CO2. After the 16-18 hour incubation, a 12 point half-log serial of the inhibitor (1000 nM-0.003 nM) is prepared, and 1.5 ul of the serial dilution is added to HEPG2 cells, which have had their media decanted and replaced with 148 ul of fresh media, and the cells are incubated for 22-24 hours at 37° C. and 5% CO2. Two and a half hours before the 22-24 hour incubation period is completed, Nunc Maxisorp plates are coated with 100 ul of primary (coating) antibody (goat anti-apoB), diluting to a ratio of 1:1000 in 1% Carbonate-Bicarbonate Coating Buffer and incubated for at least 2 hours at room temperature before the primary antibody is decanted and the wells of the microplate are washed with 200 ul of washing buffer (1% PBS, 0.05% Tween20). Next, 200 ul of blocking buffer (1% PBS, 1:500 Western Block, 5 mg/ml BSA) is added to the wells of the microplate, and incubated for at least 30 mins. Following the 22-24 hours incubation period, cell plates are removed from the incubator, 20 ul of supernatant from each well is aspirated, added to a corresponding well in 96 well plate containing 140 ul of diluent (1:2-Blocking Buffer: Washing Buffer), and mixed. Then, 120 ul is aspirated from the dilutent-supernatant plate, added to the blocked Nunc Maxisorp 96 well plate, and placed at room temperature on a shaker to mix for at least 2 hours. The secondary (capture) antibody (mouse anti-human apoB) is prepared at a ratio of 1:4000, and the detection antibody (goat anti-mouse HRP conjugated antibody) at a ratio of 1:10,000. For each antibody, 100 ul is added to each well of the microplate and the microplate is incubated at room temperature for 2 hours, washing the microplates between each antibody addition. Colorimetric development is achieved by adding 50 ul of TMB reagent to each well, incubating for 5 mins at room temperature, then adding 50 ul of 2M Sulfuric Acid to each well. Absorbance at 450 nm is monitored in an Envision plate reader to measure the amount of ApoB formed.
Results reported as average IC50, low and high IC50 range (95% confidence interval).
A general note: ELISA stands for enzyme-linked immunosorbent assay.
With `CCOC(=O)C1(COC(=O)Cc2ccc(NC(=O)c3ccc(C(F)(F)F)cc3-c3ccc(C(F)(F)F)cc3)c(C(=O)N(C)C)c2)c2ccccc2C(=O)N1C` (stereo not drawn) [Example 55, ethyll-({2-[4-({[4′,5-bis(trifluoromethyl)biphenyl-2-yl]carbonyl}amino)-3-(dimethylcarbamoyl)phenyl]acetoxy}methyl)-2-methyl-3-oxoisoindoline-1-carboxylate], the IC50 turned out to be 0.154 nM.

`CCOC(=O)C1(COC(=O)Cc2ccc(NC(=O)c3cccc(C)c3-c3ccc(OC(C)C)cc3)c(C(=O)N(C)C)c2)CCc2cccnc21` (stereo not drawn) [Example 57, ethyl 7-({2-[3-(dimethylcarbamoyl)-4-{[(4′-isopropoxy-6-methylbiphenyl-2-yl)carbonyl]amino}phenyl]acetoxy}methyl)-6,7-dihydro-5H-cyclopenta[b]pyridine-7-carboxylate]: the IC50 was 1.37 nM.

On to `CCOC(=O)C1(COC(=O)Cc2ccc(NC(=O)c3ccc(C(F)(F)F)cc3-c3ccc(C(F)(F)F)cc3)c(C(=O)N(C)C)c2)CCc2cccnc21` (stereo not drawn) [Example 58, ethyl 7-({2-[4-({[4′,5-bis(trifluoromethyl)biphenyl-2-yl]carbonyl}amino)-3-(dimethylcarbamoyl)phenyl]acetoxy}methyl)-6,7-dihydro-5H-cyclopenta[b]pyridine-7-carboxylate], for which 7.18 nM corresponded to half-maximal inhibition (IC50). This IC50 lies about 5.2-fold higher than the previous one.

With `CCOC(=O)[C@]1(COC(=O)Cc2ccc(NC(=O)c3cccc(C)c3-c3ccc(C(F)(F)F)cc3)c(C(=O)N3CCCCC3)c2)c2ccccc2C(=O)N1C` [Example 62, ethyl (1R)-2-methyl-1-({2-[4-({[6-methyl-4′-(trifluoromethyl)biphenyl-2-yl]carbonyl}amino)-3-(piperidin-1-ylcarbonyl)phenyl]acetoxy}methyl)-3-oxoisoindoline-1-carboxylate], the half-maximal inhibitory concentration (IC50) is 1.17 nM. This IC50 is about 6.1-fold lower than that of the compound before.

Compound `CCOC(=O)[C@]1(COC(=O)Cc2ccc(NC(=O)c3cccc(OC)c3-c3ccc(OC(C)C)cc3)c(C(=O)N(C)C)c2)c2ccccc2C(=O)N1C` [Example 63, ethyl (1R)-1-({2-[3-(dimethylcarbamoyl)-4-{[(4′-isopropoxy-6-methoxybiphenyl-2-yl)carbonyl]amino}phenyl]acetoxy}methyl)-2-methyl-3-oxoisoindoline-1-carboxylate] showed an IC50 of 0.119 nM.

In turn, `CCOC(=O)[C@]1(COC(=O)Cc2ccc(NC(=O)c3cccc(OC)c3-c3ccccc3)c(C(=O)N(C)C)c2)c2ccccc2C(=O)N1C` [Example 64, ethyl (1R)-1-({2-[3-(dimethylcarbamoyl)-4-{[(6-methoxybiphenyl-2-yl)carbonyl]amino}phenyl]acetoxy}methyl)-2-methyl-3-oxoisoindoline-1-carboxylate] came in with an IC50 of 0.536 nM.

Regarding `CCOC(=O)[C@]1(COC(=O)Cc2ccc(NC(=O)c3ccccc3-c3ccc(C(C)(C)C)cc3)c(C(=O)N(C)C)c2)c2ccccc2C(=O)N1C` [Example 66, ethyl (1R)-1-({2-[4-{[(4′-tert-butylbiphenyl-2-yl)carbonyl]amino}-3-(dimethylcarbamoyl)phenyl]acetoxy}methyl)-2-methyl-3-oxoisoindoline-1-carboxylate], the IC50 was 0.206 nM.

With `CCOC(=O)[C@]1(COC(=O)Cc2ccc(NC(=O)c3cccc(C)c3-c3ccc(C(C)(C)C)cc3)c(C(=O)N(C)C)c2)c2ccccc2C(=O)N1C` [Example 67, ethyl (1R)-1-({2-[4-{[(4′-tert-butyl-6-methylbiphenyl-2-yl)carbonyl]amino}-3-(dimethylcarbamoyl)phenyl]acetoxy}methyl)-2-methyl-3-oxoisoindoline-1-carboxylate], half-maximal inhibition (IC50) required 0.244 nM. This IC50 and that of the compound before are within 1.5-fold of each other.

The compound `CCOC(=O)[C@]1(COC(=O)Cc2ccc(NC(=O)c3ccc(C)cc3-c3ccc(C(C)(C)C)cc3)c(C(=O)N(C)C)c2)c2ccccc2C(=O)N1C` [Example 68, ethyl (1R)-1-({2-[4-{[(4′-tert-butyl-5-methylbiphenyl-2-yl)carbonyl]amino}-3-(dimethylcarbamoyl)phenyl]acetoxy}methyl)-2-methyl-3-oxoisoindoline-1-carboxylate] came in with an IC50 of 0.178 nM.
